From ChEMBL document CHEMBL3046556, “Microwave-assisted synthesis and antimicrobial screening of new imidazole derivatives bearing 4-thiazolidinone nucleus” (2013)
Converted amounts (≈) assume the structure as drawn. The source made the active and inactive calls. The calls are words filed in the database; no cut-off is given here.

Key:
Aspergillus clavatus [1] = assay: Antifungal activity against Aspergillus clavatus MTCC 1323 assessed as growth inhibition after 48 hr by broth dilution method; format: functional; conditions: MTCC 1323, 48 h
Aspergillus niger [2] = assay: Antifungal activity against Aspergillus niger MTCC 282 assessed as growth inhibition after 48 hr by broth dilution method; format: functional; conditions: MTCC 282, 48 h
Candida albicans [3] = assay: Antifungal activity against Candida albicans MTCC 227 assessed as growth inhibition after 48 hr by broth dilution method; format: functional; conditions: MTCC 227, 48 h
Streptococcus pyogenes [4] = assay: Antibacterial activity against Streptococcus pyogenes MTCC 442 assessed as growth inhibition after 24 hr by NCCLS broth dilution method; format: functional; conditions: MTCC 442, 24 h
Staphylococcus aureus [5] = assay: Antibacterial activity against Staphylococcus aureus MTCC 96 assessed as growth inhibition after 24 hr by NCCLS broth dilution method; format: functional; conditions: MTCC 96, 24 h
Pseudomonas aeruginosa [6] = assay: Antibacterial activity against Pseudomonas aeruginosa MTCC 1688 assessed as growth inhibition after 24 hr by NCCLS broth dilution method; format: functional; conditions: MTCC 1688, 24 h
Escherichia coli [7] = assay: Antibacterial activity against Escherichia coli MTCC 443 assessed as growth inhibition after 24 hr by NCCLS broth dilution method; format: functional; conditions: MTCC 443, 24 h
Streptococcus pyogenes [8] = assay: Antibacterial activity against Streptococcus pyogenes MTCC 442 assessed as growth inhibition at 12.5 to 1000 ug/mL after 24 hr by NCCLS broth dilution method; format: functional, organism-based
Pseudomonas aeruginosa [9] = assay: Antibacterial activity against Pseudomonas aeruginosa MTCC 1688 assessed as growth inhibition at 12.5 to 1000 ug/mL after 24 hr by NCCLS broth dilution method; format: functional, organism-based
Aspergillus niger [10] = assay: Antifungal activity against Aspergillus niger MTCC 282 assessed as growth inhibition at 12.5 to 1000 ug/mL after 48 hr by broth dilution method; format: functional, organism-based
Staphylococcus aureus [11] = assay: Antibacterial activity against Staphylococcus aureus MTCC 96 assessed as growth inhibition at 12.5 to 1000 ug/mL after 24 hr by NCCLS broth dilution method; format: functional, organism-based
Escherichia coli [12] = assay: Antibacterial activity against Escherichia coli MTCC 443 assessed as growth inhibition at 12.5 to 1000 ug/mL after 24 hr by NCCLS broth dilution method; format: functional, organism-based
Aspergillus clavatus [13] = assay: Antifungal activity against Aspergillus clavatus MTCC 1323 assessed as growth inhibition at 12.5 to 1000 ug/mL after 48 hr by broth dilution method; format: functional, organism-based
Candida albicans [14] = assay: Antifungal activity against Candida albicans MTCC 227 assessed as growth inhibition at 12.5 to 1000 ug/mL after 48 hr by broth dilution method; format: functional, organism-based

Compound	MIC (Aspergillus clavatus [1]) [µg/mL]	MIC (Aspergillus niger [2]) [µg/mL]	MIC (Candida albicans [3]) [µg/mL]	MIC (Streptococcus pyogenes [4]) [µg/mL]	MIC (Staphylococcus aureus [5]) [µg/mL]	MIC (Pseudomonas aeruginosa [6]) [µg/mL]	MIC (Escherichia coli [7]) [µg/mL]	growth inhibition (GI) (Streptococcus pyogenes [8])	growth inhibition (GI) (Pseudomonas aeruginosa [9])	growth inhibition (GI) (Aspergillus niger [10])	growth inhibition (GI) (Staphylococcus aureus [11])	growth inhibition (GI) (Escherichia coli [12])	growth inhibition (GI) (Aspergillus clavatus [13])	growth inhibition (GI) (Candida albicans [14])
CC1=N/C(=C\c2ccccc2)C(=O)N1c1ccc(/C(C)=N/N=C2/NC(=O)CS2)cc1	500 (≈ 1200 µM)	500 (≈ 1200 µM)	1000 (≈ 2400 µM)	1000 (≈ 2400 µM)	250 (≈ 599 µM)	500 (≈ 1200 µM)	1000 (≈ 2400 µM)	–	–	–	–	–	–	–
CC1=N/C(=C\c2ccccc2F)C(=O)N1c1ccc(/C(C)=N/N=C2/NC(=O)CS2)cc1	500 (≈ 1150 µM)	500 (≈ 1150 µM)	1000 (≈ 2300 µM)	100 (≈ 230 µM)	500 (≈ 1150 µM)	500 (≈ 1150 µM)	250 (≈ 574 µM)	–	–	–	–	–	–	–
COc1ccccc1/C=C1\N=C(C)N(c2ccc(/C(C)=N/N=C3/NC(=O)CS3)cc2)C1=O	25 (≈ 55.9 µM)	100 (≈ 223 µM)	500 (≈ 1120 µM)	100 (≈ 223 µM)	50 (≈ 112 µM)	50 (≈ 112 µM)	250 (≈ 559 µM)	–	–	–	–	–	–	–
CC1=N/C(=C\c2ccc(C)cc2)C(=O)N1c1ccc(/C(C)=N/N=C2/NC(=O)CS2)cc1	50 (≈ 116 µM)	12.5 (≈ 29 µM)	250 (≈ 579 µM)	25 (≈ 57.9 µM)	12.5 (≈ 29 µM)	250 (≈ 579 µM)	50 (≈ 116 µM)	–	–	–	–	–	–	–
CC1=N/C(=C\c2ccccc2O)C(=O)N1c1ccc(/C(C)=N/N=C2/NC(=O)CS2)cc1	100 (≈ 231 µM)	50 (≈ 115 µM)	100 (≈ 231 µM)	100 (≈ 231 µM)	250 (≈ 577 µM)	25 (≈ 57.7 µM)	100 (≈ 231 µM)	–	–	–	–	–	–	–
CC(=O)c1ccc(N2C(=O)/C(=C\c3ccc(O)cc3)N=C2C)cc1	1000 (≈ 3120 µM)	–	1000 (≈ 3120 µM)	–	1000 (≈ 3120 µM)	–	1000 (≈ 3120 µM)	inactive	inactive	inactive	–	–	–	–
CC1=N/C(=C\c2ccc(F)cc2)C(=O)N1c1ccc(/C(C)=N/N=C2/NC(=O)CS2)cc1	500 (≈ 1150 µM)	500 (≈ 1150 µM)	500 (≈ 1150 µM)	500 (≈ 1150 µM)	100 (≈ 230 µM)	250 (≈ 574 µM)	250 (≈ 574 µM)	–	–	–	–	–	–	–
CC1=N/C(=C\c2ccc(Cl)cc2)C(=O)N1c1ccc(/C(C)=N/N=C2/NC(=O)CS2)cc1	250 (≈ 553 µM)	500 (≈ 1110 µM)	500 (≈ 1110 µM)	100 (≈ 221 µM)	250 (≈ 553 µM)	250 (≈ 553 µM)	1000 (≈ 2210 µM)	–	–	–	–	–	–	–
CC1=N/C(=C\c2ccccc2Cl)C(=O)N1c1ccc(/C(C)=N/N=C2/NC(=O)CS2)cc1	1000 (≈ 2210 µM)	1000 (≈ 2210 µM)	1000 (≈ 2210 µM)	250 (≈ 553 µM)	500 (≈ 1110 µM)	100 (≈ 221 µM)	500 (≈ 1110 µM)	–	–	–	–	–	–	–
CC1=N/C(=C\c2ccc(O)cc2)C(=O)N1c1ccc(/C(C)=N/N=C2/NC(=O)CS2)cc1	100 (≈ 231 µM)	50 (≈ 115 µM)	50 (≈ 115 µM)	50 (≈ 115 µM)	50 (≈ 115 µM)	100 (≈ 231 µM)	50 (≈ 115 µM)	–	–	–	–	–	–	–
COC1=CC(=O)C[C@@H](C)[C@]12Oc1c(Cl)c(OC)cc(OC)c1C2=O [GRISEOFULVIN]	100 (≈ 283 µM)	100 (≈ 283 µM)	500 (≈ 1420 µM)	–	–	–	–	–	–	–	–	–	–	–
COc1ccccc1/C=C1/N=C(C)N(c2ccc(C(C)=O)cc2)C1=O	250 (≈ 748 µM)	250 (≈ 748 µM)	–	–	–	–	–	inactive	inactive	–	inactive	inactive	inactive	inactive
CC1=N/C(=C\c2ccccc2C)C(=O)N1c1ccc(/C(C)=N/N=C2/NC(=O)CS2)cc1	250 (≈ 579 µM)	100 (≈ 232 µM)	500 (≈ 1160 µM)	25 (≈ 57.9 µM)	25 (≈ 57.9 µM)	250 (≈ 579 µM)	250 (≈ 579 µM)	–	–	–	–	–	–	–
CC(=O)c1ccc(N2C(=O)/C(=C\c3ccc(C)cc3)N=C2C)cc1	250 (≈ 785 µM)	250 (≈ 785 µM)	–	–	1000 (≈ 3140 µM)	–	1000 (≈ 3140 µM)	inactive	inactive	–	–	–	inactive	inactive
CC1=N/C(=C\c2cccc(O)c2)C(=O)N1c1ccc(/C(C)=N/N=C2/NC(=O)CS2)cc1	250 (≈ 577 µM)	250 (≈ 577 µM)	500 (≈ 1150 µM)	250 (≈ 577 µM)	100 (≈ 231 µM)	250 (≈ 577 µM)	250 (≈ 577 µM)	–	–	–	–	–	–	–
CC(=O)c1ccc(N2C(=O)/C(=C\c3ccccc3O)N=C2C)cc1	1000 (≈ 3120 µM)	–	1000 (≈ 3120 µM)	–	–	–	–	inactive	inactive	–	inactive	inactive	–	–
CC1=N/C(=C\c2ccccc2[N+](=O)[O-])C(=O)N1c1ccc(/C(C)=N/N=C2/NC(=O)CS2)cc1	500 (≈ 1080 µM)	500 (≈ 1080 µM)	500 (≈ 1080 µM)	100 (≈ 216 µM)	250 (≈ 541 µM)	500 (≈ 1080 µM)	100 (≈ 216 µM)	–	–	–	–	–	–	–
CC1=N/C(=C\c2cccc(C)c2)C(=O)N1c1ccc(/C(C)=N/N=C2/NC(=O)CS2)cc1	100 (≈ 232 µM)	250 (≈ 579 µM)	500 (≈ 1160 µM)	100 (≈ 232 µM)	100 (≈ 232 µM)	250 (≈ 579 µM)	500 (≈ 1160 µM)	–	–	–	–	–	–	–
CC1=N/C(=C\c2ccc([N+](=O)[O-])cc2)C(=O)N1c1ccc(/C(C)=N/N=C2/NC(=O)CS2)cc1	100 (≈ 216 µM)	250 (≈ 541 µM)	500 (≈ 1080 µM)	250 (≈ 541 µM)	250 (≈ 541 µM)	100 (≈ 216 µM)	500 (≈ 1080 µM)	–	–	–	–	–	–	–
COc1ccc(/C=C2\N=C(C)N(c3ccc(/C(C)=N/N=C4/NC(=O)CS4)cc3)C2=O)cc1	250 (≈ 559 µM)	250 (≈ 559 µM)	500 (≈ 1120 µM)	50 (≈ 112 µM)	500 (≈ 1120 µM)	100 (≈ 223 µM)	250 (≈ 559 µM)	–	–	–	–	–	–	–
